# Data reported in article PMC7898822, “RNA‐PROTACs: Degraders of RNA‐Binding Proteins” (Angewandte Chemie (International Ed. in English), 2020).
# Experiments:
# Assay type in all cases: cell-based, human
# K562 cells = test: Intracellular uptake of FAM-labelled oligonucleotides, fluorescence microscopy; conditions: FAM-conjugated, 1 µM, 24 h
# Lin28B = test: Western blot of Lin28B in K562 cells; conditions: 48 h
# Excerpt: Finally, we tested RNA‐PROTACs for their ability to degrade their target in two cell lines: the embryonic NT2/D1 cell line, which expresses high levels of Lin28A, ^[13a] and K562 cells which express Lin28A and Lin28B. […] Suppression of the target was not quantitative, as is often observed from testing PROTAC reagents without an optimization of the targeting ligand, the linker and the E3 system. Furthermore, there was no statistical difference in the activity of the 7‐mer and 11‐mer reagents. […] The reagents had no discernible effect on cell toxicity (Figure S11). […] Finally, we co‐treated K562 cells with ORN3P1 and MG132, a reversible inhibitor of the 26S proteasome. […]
# oligonucleotides ([…]) into 15N-labeled Lin28-ZnF12 in 10 mM HEPES pH 7.0, 1.5 mM β-mercaptoethanol, 0.15 mM ZnCl2 and monitored by 1H-15N-HSQC at 303K.
# Fluorescence Polarization Assay. Fluorescence polarization titration assay was carried out by titrating Lin28_ZKD protein into FAM-labeled PreE-let-7 at a 10 nM final concentration and buffer (10 mM HEPES, 150 mM NaCl, 10 µM ZiCl2, pH 7,4). […] The fluorescence anisotropy was measured on a Spectra Max Paradigm multimode plate reader (Molecular Devices). The fluorescence polarization competition assay was carried out in a similar fashion, except compounds were titrated into buffer containing Lin28_ZKD and FAM-labeled preE-let-7. […]
# Lin28A = test: Western blot of Lin28A in K562 cells
# Excerpt: Finally, we tested RNA‐PROTACs for their ability to degrade their target in two cell lines: the embryonic NT2/D1 cell line, which expresses high levels of Lin28A, ^[13a] and K562 cells which express Lin28A and Lin28B. […] Finally, we co‐treated K562 cells with ORN3P1 and MG132, a reversible inhibitor of the 26S proteasome. […] In order to explore the versatility of RNA‐PROTACs with non peptide‐based VHL ligands, we conjugated small‐molecule VH032 ^[38] to ORN3 via an amino linker to yield ORN3VH032 (Figure S1). […]
smiles,measurement,setting,value
CC[C@H](C)[C@H](NC(=O)[C@H](Cc1ccc(O)cc1)NC(=O)[C@@H]1C[C@@H](O)CN1C(=O)[C@H](C)NC(=O)[C@H](CC(C)C)NC(=O)CCCCCNC(=O)[C@@H](N)CSC1CC(=O)N(CCOP(=O)(S)OC[C@H]2O[C@@H](n3cnc4c(N)ncnc43)[C@H](OCCOC)[C@@H]2OP(=O)(S)OC[C@H]2O[C@@H](n3cnc4c(=O)[nH]c(N)nc43)[C@H](OCCOC)[C@@H]2OP(=O)(S)OC[C@H]2O[C@@H](n3cnc4c(=O)[nH]c(N)nc43)[C@H](OCCOC)[C@@H]2OP(=O)(S)OC[C@H]2O[C@@H](n3cnc4c(N)ncnc43)[C@H](OCCOC)[C@@H]2OP(=O)(S)OC[C@H]2O[C@@H](n3cnc4c(=O)[nH]c(N)nc43)[C@H](OCCOC)[C@@H]2OP(=O)(S)OC[C@H]2O[C@@H](n3cnc4c(N)ncnc43)[C@H](OCCOC)[C@@H]2OP(=O)(S)OC[C@H]2O[C@@H](n3cc(C)c(=O)[nH]c3=O)[C@H](OCCOC)[C@@H]2O)C1=O)C(=O)O (stereo partly shown) [ORN3P1],intracellular localization,K562 cells,present in the cytoplasm and nuclei of K562 cells
same,effect on Lin28B,Lin28B,little effect on Lin28B
same,Lin28A suppression with MG132 co-treatment,"Lin28A; K562 cells co-treated with 100 nM MG132, 48 h",largely attenuated Lin28A suppression
same,suppression of Lin28A,"Lin28A; K562 cells, highest concentration, 48 h, western blot, three independent experiments",50%
